{"source": "patent US20230321101A1", "about": "“METHODS AND USES OF HALOFUGINONE” (The Regents of the University of California, priority 2020, published 2023)", "key": {"[1]": {"system": "authentic SARS-COV-2 virus", "test": "SARS-CoV-2 infected golden hamsters, intraperitoneal halofuginone", "assay_type": "in vivo", "conditions": "for viral titer (TCID50 from nasal washes): 200 μg/kg intraperitoneally daily", "procedure": "FIG. 35A, FIG. 35B, and FIG. 35C.\nSix golden hamsters were dosed at 200 μg/kg with halofuginone starting at day −1, infected at day 0 with authentic SARS-COV-2 virus, and every day for five more days they received 200 μg/kg of halofuginone (FIG. 35A). Dosing was done intraperitoneally. A control group (n=6) was administered PBS. On day 3, half of the animals (n=3) in each group was sacrificed, and at day 5 the remaining animals (n=3) were sacrificed. TCID50 values as a measure of SARS-CoV-2 infectivity were measured from nasal washes at day 3 and day 5; the values were determined by viral cytopathic effect."}, "[2]": {"system": "cell surface heparan sulfate of Hep3B cells", "test": "Heparan sulfate presentation by anti-HS mAb 10E4 staining of Hep3B cells", "assay_type": "cell-based, human"}, "[3]": {"system": "authentic SARS-CoV-2", "assay_type": "cell-based"}, "[4]": {"system": "HIV-1", "test": "HIV-1 antiviral immunofluorescence assay in HeLa Tzmbl cells", "assay_type": "cell-based", "conditions": "Human immunodeficiency virus 1, read-out: EC50 HIV-1", "procedure": "(§1) Experimental Procedure. The antiviral activity of 8 dilutions of each compound was explored by adding the drug to the assay cells 2 h after infection with the different viruses. Virus and compounds were left on the cells for the entire duration of the experiment (28 h for Zika virus and 24 h for all other viruses). The cytotoxicity of the same range of concentrations of compounds was determined by LDH release assay in the same cell lines.\n(§2) Cell plating. Cells were detached and counted following SOP-RA 003 and SOP-RA 004. Count was recorded in the Cell Count Logbook, Volume 1. For each virus four plates were seeded, two for the antiviral assay and two for the cytotoxicity assay. Cells were seeded in 100 μl/well of complete media at the following densities: • Huh7: 8,000 cells/well (Dengue) • SH-SY5Y: 10,000 cells/wells (Zika) • HeLa Tzmbl: 8,000 cells/well (HIV)\n(§3) Compounds dilutions. The 22.1 mM stocks were further diluted to 1 mM in DMSO by adding 211 μl of DMSO to 10 μl of compound. Three serial dilutions were prepared in different media for different viruses/cells. For each dilution, drugs were prepared at twice the final concentration in 50 μl volume, because they are diluted to the final concentration by an equal volume of virus or media.\n(§4) Infection. Cells were infected in 50 μl of supplemented media/well at the following multiplicity of infection (MOI): • DENV-2, MOI 1 • ZIKV, MOI 5 • HIV, MOI 0.5\n(§5) After removing culture media from cells, 50 μl of virus dilution were added to all wells except Column 11 (uninfected control), where the same volume of supplemented media was added. […]\n(§6) Infectivity readout. […] The primary antibodies were detected with an Alexa-488 conjugate secondary antibody (Life Technologies, A11001), and nuclei were stained with Hoechst. Images were acquired on a CellInsight CX5 high content platform (Thermo Scientific) using a 4× objective, and percentage infection calculated using CellInsight CX5 software (infected cells/total cells×100).\n(§7) Determination of % Inhibition—IF assay. Normalized percentages of inhibition were calculated using the following formula: […]"}, "[5]": {"system": "cell surface heparan sulfate of Vero E6 cells", "test": "Heparan sulfate presentation by anti-HS mAb 10E4 staining of Vero E6 cells", "assay_type": "cell-based, African green monkey", "conditions": "Vero E6, 18 h"}, "[6]": {"system": "Hep3B cells transcriptome", "test": "RNA-Seq of Hep3B cells treated with halofuginone", "assay_type": "cell-based, human"}, "[7]": {"system": "authentic SARS-CoV-2", "assay_type": "cell-based", "remark": "listed apart in the source"}, "[8]": {"system": "recombinant SARS-CoV-2 spike RBD protein binding to Calu-3 cells"}, "[9]": {"system": "Vero E6 cells", "test": "Cell number of Vero E6 cells treated for 24 h", "assay_type": "cell-based, African green monkey", "conditions": "Vero E6, 24 h", "procedure": "FIG. 32A and FIG. 32B. […] A-B, Measurement of authentic SARS-CoV-2 infection and cell number in Vero E6 cells treated with (A) halofuginone (HF) or (B) the 2R,3S-(+) enantiomer for 24 h. Data shown as mean±S.D."}, "[10]": {"conditions": "mice, cited from earlier work"}, "[11]": {"system": "recombinant SARS-CoV-2 spike RBD protein binding to Hep3B cells"}, "[12]": {"system": "hepcidin expression", "test": "Hepcidin and SMAD7 expression in HepG2 human hepatocytes", "assay_type": "cell-based", "conditions": "HepG2, 24 hr incubation", "procedure": "FIG. 8A and FIG. 8B. HepG2—24 hr incubation."}, "[13]": {"system": "ZIKV (Zika virus)", "test": "ZIKV antiviral immunofluorescence assay in SH-SY5Y cells", "assay_type": "cell-based", "conditions": "Zika virus, read-out: EC50 ZIKV", "procedure": "as §1, §2, §3, §4, §5, §6, §7"}}, "note": "“And” between values parts separate entries of the source, which are not always exact repeats. Identical values can stand only once. “Also recorded” adds a separate entry of the source. Like-named read-outs stand apart in the source and are kept apart here.", "data": [{"smiles": "O=C(CC1NCCCC1O)Cn1cnc2cc(Br)c(Cl)cc2c1=O", "note": "(racemic) [halofuginone]", "values": [{"measurement": "viral titer (TCID50 from nasal washes)", "setting": "[1]; day 3 and day 5", "value": "significantly reduced viral titer by day 5 post infection"}, {"measurement": "viral titer (TCID50 from nasal washes)", "setting": "[1]; day 3 and day 5, listed as Halofuginone", "value": "potent anti-viral efficacy"}, {"measurement": "body weight", "setting": "[1]; 200 μg/kg intraperitoneally, day -1 to day 5", "value": "no deleterious effect on body weight"}, {"measurement": "effect on heparan sulfate presentation (10E4 binding)", "setting": "[2]; listed as Halofuginone", "value": "dose-dependently reduced 10E4 binding; also recorded: dose-dependently reduced the presence of cell surface heparan sulfate"}, {"measurement": "effect on heparan sulfate presentation (10E4 binding)", "setting": "[2]; listed as halofuginone (MAZ1392)", "value": "reduced heparan sulfate presentation"}, {"measurement": "decrease of viral RNA levels", "setting": "[3]", "value": "10- to 100 fold"}, {"measurement": "intracellular viral RNA", "setting": "[3]", "value": "did not change"}, {"measurement": "reduction of SARS-CoV-2 infectivity", "setting": "[3]", "value": "3 Log and 4 Log"}, {"measurement": "reduction of secreted infectious virions", "setting": "[3]", "value": "~1000", "unit": "fold"}, {"measurement": "virus in plaque assays", "setting": "[3]; HuH 7.5, doses above 100 nM", "value": "No virus was detected in plaque assays"}, {"measurement": "productive infection", "setting": "[3]; Huh 7.5, 100 nM", "value": "prevented productive infection"}, {"measurement": "reduction of SARS-CoV-2 infection (viral titers)", "setting": "[3]; Huh 7.5, 100 nM, pretreatment alone", "value": "~30", "unit": "fold"}, {"measurement": "EC50", "setting": "[4]", "value": 23.6, "unit": "nM"}, {"measurement": "effect on heparan sulfate presentation (10E4 binding)", "setting": "[5]", "value": "10E4 binding increased and did not significantly alter heparan sulfate production and presentation"}, {"measurement": "effect on heparan sulfate presentation (10E4 binding)", "setting": "[5]; listed as Halofuginone", "value": "did not decrease cellular HS"}, {"measurement": "ATF4-mediated integrated stress response (ISR)", "setting": "[6]; Hep3B RNA-Seq", "value": "induced a general ATF4-mediated ISR"}, {"measurement": "expression of host factors exploited by SARS-CoV-2, TMPRSS2 and ACE2", "setting": "[6]; Hep3B RNA-Seq", "value": "No significant difference in expression"}, {"measurement": "mRNA of HSPGs GPC2 (GPC1) and SDC1 with HS biosynthetic enzymes B3GAT3 and EXTL3", "setting": "[6]; Hep3B RNA-Seq", "value": "significantly downregulated"}, {"measurement": "unfolded protein-induced ER stress response", "setting": "[6]; Hep3B RNA-Seq", "value": "did not activate the unfolded protein-induced ER stress response"}, {"measurement": "differentially expressed genes", "setting": "[6]; Hep3B, 200 or 500 nM, 6 h and 18 h", "value": "~2700", "unit": "genes"}, {"measurement": "infectious SARS-CoV-2 in supernatants (plaque assay)", "setting": "[7]", "value": "No infectious SARS-CoV-2 could be detected; also recorded: No virus was detected"}, {"measurement": "effect on spike (RBD) protein binding", "setting": "[8]", "value": "dose-dependently inhibited spike protein binding"}, {"measurement": "reduction in spike RBD binding", "setting": "[8]", "value": 5, "unit": "fold"}, {"measurement": "effect on spike (RBD) protein binding", "setting": "[8]; listed as Halofuginone", "value": "reduced spike RBD protein binding"}, {"measurement": "cell proliferation (cell number)", "setting": "[9]", "value": "inhibit SARS-CoV-2 infection and cell proliferation"}, {"measurement": "exposure (area under the curve) in the lung compared to plasma", "setting": "[10]; single intravenous injection", "value": "more than 87 fold"}, {"measurement": "tissue distribution", "setting": "[10]", "value": "highest tissue concentrations in the lung and kidney"}, {"measurement": "decrease of SARS-CoV-2 RBD binding compared to excipient control (DMSO)", "setting": "[11]; 1 μM, 18 h", "value": 84, "unit": "%"}, {"measurement": "inhibition of spike RBD protein binding with excess proline", "setting": "[11]; 4 mM proline in the media", "value": "prevented the ability of halofuginone to inhibit spike RED protein binding"}, {"measurement": "effect on spike (RBD) protein binding", "setting": "[11]; listed as Halofuginone", "value": "reduced spike RBD protein binding"}, {"measurement": "BMP induced expression of hepcidin", "setting": "[12]", "value": "inhibits BMP induced expression of hepcidin"}, {"measurement": "SMAD7 levels", "setting": "[12]", "value": "increases SMAD7 levels"}, {"measurement": "inflammation (IL6) induced expression of hepcidin", "setting": "[12]", "value": "inhibits inflammation (1L6) induced expression of hepcidin"}, {"measurement": "EC50", "setting": "[13]", "value": 21.8, "unit": "nM"}]}]}
